# From EP0229128B1, “DERIVATIVES OF GLYCERO-3(2)-PHOSPHO-L-SERINE AND PHARMACEUTICAL PREPARATIONS CONTAINING THEM” (CL PHARMA AKTIENGESELLSCHAFT, priority 1985, dated 1987)
# System: Ehrlich-Ascites-Tumorzellen
# Assay: Inhibition of proliferation of Ehrlich ascites tumour cells in vitro
# Assay type: cell-based
# Conditions: Konzentration 1 µM, read-out: Hemmung der Proliferation (%) von Ehrlich-Ascites-Tumorzellen in vitro, % Hemmung
# Text: Die Verbindungen der allgemeinen Formel I und Salze davon sind biologisch hochaktiv und besitzen insbesondere eine ausgeprägte Antitumorwirksamkeit. Diese wertvollen pharmakologischen Eigenschaften können in vitro und in vivo unter Verwendung von Standardmethoden nachgewiesen werden, beispielsweise indem die Hemmung der Proliferation von Ehrlich-Ascites-Tumorzellen in vitro unter Einwirkung von Glycero-3(2)-phospho-L-serinderivaten der allgemeinen Formel I bestimmt wird. • In diesem Test (Tabelle I) bewirken die erfindungsgemäßen Verbindungen, beispielsweise • 1-0-Hexadecyl-2-chlor-2-desoxy-glycero-3-phospho-L-serin (Verbindung Nr. 1) • 1-0-Hexadecyl-2-fluor-2-desoxy-glycero-3-phospho-L-serin (Verbindung Nr. 2) • 1-Chlor-1-desoxy-3-0-hexadecyl-glycero-2-phospho-L-serin (Verbindung Nr. 3) • 1-0-(2,2,2-Trifluorethy)-2-0-hexadecyl-glycero-3-phospho-L-serin (Verbindung Nr. 4), schon in sehr geringen Konzentrationen eine signifikante Hemmung des Zellwachstums von Ehrlich-Ascites-Tumorzellen.
row,SMILES,inhibition at 1 µM [%]
1,"CCCCCCCCCCCCCCCCOCC(Cl)COP(=O)(O)OC[C@H](N)C(=O)O (stereo partly drawn) [Verbindung Nr. 1, 1-O-Hexadecyl-2-chlor-2-desoxy-glycero-3-phospho-L-serin]",16
2,"CCCCCCCCCCCCCCCCOCC(CCl)OP(=O)(O)OC[C@H](N)C(=O)O (stereo partly drawn) [Verbindung Nr. 3, 1-Chlor-1-desoxy-3-O-hexadecyl-glycero-2-phospho-L-serin]",15
3,"CCCCCCCCCCCCCCCCOCC(F)COP(=O)(O)OC[C@H](N)C(=O)O (stereo partly drawn) [Verbindung Nr. 2, 1-O-Hexadecyl-2-fluor-2-desoxy-glycero-3-phospho-L-serin]",10
4,"CCCCCCCCCCCCCCCCCCOCC(COP(=O)([O-])OCC[N+](C)(C)C)OC (stereo not shown) [V, 1-O-Octadecyl-2-O-methyl-glycero-3-phosphocholin, reference compound]",0

# Same assay, conditions: Konzentration 2 µM, read-out: Hemmung der Proliferation (%) von Ehrlich-Ascites-Tumorzellen in vitro, % Hemmung
row,SMILES,inhibition at 2 µM [%]
1,"CCCCCCCCCCCCCCCCOCC(Cl)COP(=O)(O)OC[C@H](N)C(=O)O (stereo partly drawn) [Verbindung Nr. 1, 1-O-Hexadecyl-2-chlor-2-desoxy-glycero-3-phospho-L-serin]",10
2,"CCCCCCCCCCCCCCCCOCC(CCl)OP(=O)(O)OC[C@H](N)C(=O)O (stereo partly drawn) [Verbindung Nr. 3, 1-Chlor-1-desoxy-3-O-hexadecyl-glycero-2-phospho-L-serin]",17
3,"CCCCCCCCCCCCCCCCOCC(F)COP(=O)(O)OC[C@H](N)C(=O)O (stereo partly drawn) [Verbindung Nr. 2, 1-O-Hexadecyl-2-fluor-2-desoxy-glycero-3-phospho-L-serin]",13
4,"CCCCCCCCCCCCCCCCCCOCC(COP(=O)([O-])OCC[N+](C)(C)C)OC (stereo not shown) [V, 1-O-Octadecyl-2-O-methyl-glycero-3-phosphocholin, reference compound]",0

# Same assay, conditions: Konzentration 5 µM, read-out: Hemmung der Proliferation (%) von Ehrlich-Ascites-Tumorzellen in vitro, % Hemmung
row,SMILES,inhibition at 5 µM [%]
1,"CCCCCCCCCCCCCCCCOC(COCC(F)(F)F)COP(=O)(O)OC[C@H](N)C(=O)O (stereo partly drawn) [Verbindung Nr. 4, 1-O-(2,2,2-Trifluorethyl)-2-O-hexadecyl-glycero-3-phospho-L-serin]",10
2,"CCCCCCCCCCCCCCCCOCC(Cl)COP(=O)(O)OC[C@H](N)C(=O)O (stereo partly drawn) [Verbindung Nr. 1, 1-O-Hexadecyl-2-chlor-2-desoxy-glycero-3-phospho-L-serin]",30
3,"CCCCCCCCCCCCCCCCOCC(CCl)OP(=O)(O)OC[C@H](N)C(=O)O (stereo partly drawn) [Verbindung Nr. 3, 1-Chlor-1-desoxy-3-O-hexadecyl-glycero-2-phospho-L-serin]",38
4,"CCCCCCCCCCCCCCCCOCC(F)COP(=O)(O)OC[C@H](N)C(=O)O (stereo partly drawn) [Verbindung Nr. 2, 1-O-Hexadecyl-2-fluor-2-desoxy-glycero-3-phospho-L-serin]",18
5,"CCCCCCCCCCCCCCCCCCOCC(COP(=O)([O-])OCC[N+](C)(C)C)OC (stereo not shown) [V, 1-O-Octadecyl-2-O-methyl-glycero-3-phosphocholin, reference compound]",4

# Same assay, conditions: Konzentration 10 µM, read-out: Hemmung der Proliferation (%) von Ehrlich-Ascites-Tumorzellen in vitro, % Hemmung
row,SMILES,inhibition at 10 µM [%]
1,"CCCCCCCCCCCCCCCCOC(COCC(F)(F)F)COP(=O)(O)OC[C@H](N)C(=O)O (stereo partly drawn) [Verbindung Nr. 4, 1-O-(2,2,2-Trifluorethyl)-2-O-hexadecyl-glycero-3-phospho-L-serin]",36
2,"CCCCCCCCCCCCCCCCOCC(Cl)COP(=O)(O)OC[C@H](N)C(=O)O (stereo partly drawn) [Verbindung Nr. 1, 1-O-Hexadecyl-2-chlor-2-desoxy-glycero-3-phospho-L-serin]",55
3,"CCCCCCCCCCCCCCCCOCC(CCl)OP(=O)(O)OC[C@H](N)C(=O)O (stereo partly drawn) [Verbindung Nr. 3, 1-Chlor-1-desoxy-3-O-hexadecyl-glycero-2-phospho-L-serin]",68
4,"CCCCCCCCCCCCCCCCOCC(F)COP(=O)(O)OC[C@H](N)C(=O)O (stereo partly drawn) [Verbindung Nr. 2, 1-O-Hexadecyl-2-fluor-2-desoxy-glycero-3-phospho-L-serin]",51
5,"CCCCCCCCCCCCCCCCCCOCC(COP(=O)([O-])OCC[N+](C)(C)C)OC (stereo not shown) [V, 1-O-Octadecyl-2-O-methyl-glycero-3-phosphocholin, reference compound]",23

# Same assay, conditions: Konzentration 20 µM, read-out: Hemmung der Proliferation (%) von Ehrlich-Ascites-Tumorzellen in vitro, % Hemmung
row,SMILES,inhibition at 20 µM [%]
1,"CCCCCCCCCCCCCCCCOC(COCC(F)(F)F)COP(=O)(O)OC[C@H](N)C(=O)O (stereo partly drawn) [Verbindung Nr. 4, 1-O-(2,2,2-Trifluorethyl)-2-O-hexadecyl-glycero-3-phospho-L-serin]",74
2,"CCCCCCCCCCCCCCCCOCC(Cl)COP(=O)(O)OC[C@H](N)C(=O)O (stereo partly drawn) [Verbindung Nr. 1, 1-O-Hexadecyl-2-chlor-2-desoxy-glycero-3-phospho-L-serin]",80
3,"CCCCCCCCCCCCCCCCOCC(CCl)OP(=O)(O)OC[C@H](N)C(=O)O (stereo partly drawn) [Verbindung Nr. 3, 1-Chlor-1-desoxy-3-O-hexadecyl-glycero-2-phospho-L-serin]",81
4,"CCCCCCCCCCCCCCCCOCC(F)COP(=O)(O)OC[C@H](N)C(=O)O (stereo partly drawn) [Verbindung Nr. 2, 1-O-Hexadecyl-2-fluor-2-desoxy-glycero-3-phospho-L-serin]",82
5,"CCCCCCCCCCCCCCCCCCOCC(COP(=O)([O-])OCC[N+](C)(C)C)OC (stereo not shown) [V, 1-O-Octadecyl-2-O-methyl-glycero-3-phosphocholin, reference compound]",62

# Same assay, conditions: Konzentration 100 µM, read-out: Hemmung der Proliferation (%) von Ehrlich-Ascites-Tumorzellen in vitro, % Hemmung
row,SMILES,inhibition at 100 µM [%]
1,"CCCCCCCCCCCCCCCCOC(COCC(F)(F)F)COP(=O)(O)OC[C@H](N)C(=O)O (stereo partly drawn) [Verbindung Nr. 4, 1-O-(2,2,2-Trifluorethyl)-2-O-hexadecyl-glycero-3-phospho-L-serin]",100
2,"CCCCCCCCCCCCCCCCOCC(Cl)COP(=O)(O)OC[C@H](N)C(=O)O (stereo partly drawn) [Verbindung Nr. 1, 1-O-Hexadecyl-2-chlor-2-desoxy-glycero-3-phospho-L-serin]",95
3,"CCCCCCCCCCCCCCCCOCC(CCl)OP(=O)(O)OC[C@H](N)C(=O)O (stereo partly drawn) [Verbindung Nr. 3, 1-Chlor-1-desoxy-3-O-hexadecyl-glycero-2-phospho-L-serin]",93
4,"CCCCCCCCCCCCCCCCOCC(F)COP(=O)(O)OC[C@H](N)C(=O)O (stereo partly drawn) [Verbindung Nr. 2, 1-O-Hexadecyl-2-fluor-2-desoxy-glycero-3-phospho-L-serin]",95
5,"CCCCCCCCCCCCCCCCCCOCC(COP(=O)([O-])OCC[N+](C)(C)C)OC (stereo not shown) [V, 1-O-Octadecyl-2-O-methyl-glycero-3-phosphocholin, reference compound]",100
